Test results as given in the supplement of paper PMC10307832.

Key:
Experiment in all cases: relative viability (nuclei count vs DMSO), 5 days (fraction); higher = more cells survive
[1] = compound: COc1cc2ncn(-c3cc(OCc4ccccc4C(F)(F)F)c(C(N)=O)s3)c2cc1OC + Cc1nc(Nc2ncc(C(=O)Nc3c(C)cccc3Cl)s2)cc(N2CCN(CCO)CC2)n1 [Dasatinib] (partner 0.075 µM)
In short: (§1)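 Values are medians from duplicate plates. Each reflects relative viability, defined as the nuclei count of treated wells over that of vehicle wells. Lung cancer cell lines in 1536-well plates were pin-tool dosed one day after seeding with one drug alone or with a fixed anchor-drug dose plus five library-drug doses (not always all listed) in √10 steps, then fixed, stained and imaged at 4× after 5 days.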

[2] = compound: COc1cc2ncn(-c3cc(OCc4ccccc4C(F)(F)F)c(C(N)=O)s3)c2cc1OC + COc1cc2c(Oc3ccc(NC(=O)C4(C(=O)Nc5ccc(F)cc5)CC4)cc3F)ccnc2cc1OCCCN1CCOCC1 [Foretinib] (partner 0.25 µM)
In short: as §1

[3] = compound: COc1cc2ncn(-c3cc(OCc4ccccc4C(F)(F)F)c(C(N)=O)s3)c2cc1OC + Nc1ncn([C@H]2C[C@H](O)[C@@H](CO)O2)c(=O)n1 [Decitabine] (partner 2 µM)
In short: as §1

[4] = compound: COc1cc2ncn(-c3cc(OCc4ccccc4C(F)(F)F)c(C(N)=O)s3)c2cc1OC + CCNC(=O)c1noc(-c2cc(C(C)C)c(O)cc2O)c1-c1ccc(CN2CCOCC2)cc1 [Luminespib] (partner 0.01 µM)
In short: as §1

Row | Cell Line | relative viability ([1]; first compound 0.05 µM) | relative viability ([1]; first compound 0.1581 µM) | relative viability ([1]; first compound 0.5 µM) | relative viability ([1]; first compound 1.581 µM) | relative viability ([1]; first compound 5 µM) | relative viability ([2]; first compound 0.05 µM) | relative viability ([2]; first compound 0.1581 µM) | relative viability ([2]; first compound 0.5 µM) | relative viability ([2]; first compound 1.581 µM) | relative viability ([2]; first compound 5 µM) | relative viability ([3]; first compound 0.05 µM) | relative viability ([3]; first compound 0.1581 µM) | relative viability ([3]; first compound 0.5 µM) | relative viability ([3]; first compound 1.581 µM) | relative viability ([3]; first compound 5 µM) | relative viability ([4]; first compound 0.05 µM) | relative viability ([4]; first compound 0.1581 µM) | relative viability ([4]; first compound 0.5 µM) | relative viability ([4]; first compound 1.581 µM) | relative viability ([4]; first compound 5 µM)
1 | NCI-H441 | 0.573 | 0.538 | 0.265 | 0.174 | 0.168 | 1.03 | 0.871 | 0.266 | 0.249 | 0.226 | 0.229 | 0.243 | 0.18 | 0.137 | 0.164 | 0.312 | 0.378 | 0.216 | 0.224 | 0.202
2 | NCI-H460 | 0.593 | 0.636 | 0.283 | 0.0166 | 0.0348 | 1.07 | 0.938 | 0.499 | 0.028 | 0.0214 | 0.495 | 0.15 | 0.257 | 0.0216 | 0.0165 | 0.0239 | 0.0323 | 0.0299 | 0.0165 | 0.0166
3 | NCI-H520 | 0.239 | 0.202 | 0.157 | 0.191 | 0.193 | 0.892 | 0.836 | 0.357 | 0.249 | 0.204 | 0.482 | 0.525 | 0.261 | 0.217 | 0.219 | 0.218 | 0.25 | 0.21 | 0.261 | 0.2
4 | NCI-H596 | 0.616 | 0.561 | 0.478 | 0.279 | 0.235 | 1.03 | 0.908 | 0.481 | 0.307 | 0.242 | 1.6 | 1.13 | 0.935 | 0.817 | 0.425 | 1.16 | 1.08 | 0.79 | 0.272 | 0.276
5 | NCI-H647 | 0.216 | 0.144 | 0.0412 | 0.0467 | 0.0528 | 1.1 | 1.17 | 0.444 | 0.195 | 0.0972 | 0.381 | 0.275 | 0.168 | 0.131 | 0.107 | 0.438 | 0.143 | 0.12 | 0.101 | 0.069
6 | NCI-H650 | 0.468 | 0.429 | 0.32 | 0.166 | 0.261 | 0.995 | 1.08 | 0.779 | 0.348 | 0.637 | 0.329 | 0.309 | 0.261 | 0.175 | 0.236 | 0.748 | 0.759 | 0.632 | 0.118 | 0.37
7 | NCI-H661 | 0.986 | 0.779 | 0.312 | 0.293 | 0.171 | 0.908 | 0.866 | 0.854 | 0.322 | 0.27 | 0.566 | 0.496 | 0.363 | 0.277 | 0.237 | 0.812 | 0.872 | 0.528 | 0.255 | 0.212
8 | NCI-H727 | 0.383 | 0.349 | 0.362 | 0.225 | 0.329 | 0.929 | 0.941 | 0.639 | 0.309 | 0.476 | 1.03 | 0.927 | 0.825 | 0.616 | 0.568 | 0.396 | 0.311 | 0.334 | 0.291 | 0.31
